Article PMC7286362 (Journal of medicinal chemistry, 2020)
Read-outs that look alike come from different tables or passages of the source.

What was measured:
PRMT6 [1] = target: T1, PRMT6 (Homo sapiens, UniProt Q96LA8); format: cell-based; conditions: for inhibition of H3R2me2a in cells: PRMT6-transfected HEK293T cells, 20 h
MCF-7 cells = assay: Cell viability assay; format: cell-based; conditions: up to 20 μM, 3 days, CCK-8
HEK293T cells = assay: Cell viability assay; format: cell-based; conditions: up to 20 μM, 3 days, CCK-8
[2] = test system: PNT2 (a nontumorigenic prostate cell line); assay: Cell viability assay; format: cell-based; conditions: up to 20 μM, 3 days, CCK-8
PRMT6 [3] = target: T1, PRMT6; assay: Mass spectrometry analysis of covalent binding, PRMT6; conditions: 15 μM protein, 300 μM compound, 1 h at rt
PRMT3 [4] = target: T2, PRMT3 (Homo sapiens, UniProt O60678); format: cell-based; conditions: HEK293T cells, 20 h, concentrations up to 20 μM
T2 sequence (O60678 whole entry, species assumed): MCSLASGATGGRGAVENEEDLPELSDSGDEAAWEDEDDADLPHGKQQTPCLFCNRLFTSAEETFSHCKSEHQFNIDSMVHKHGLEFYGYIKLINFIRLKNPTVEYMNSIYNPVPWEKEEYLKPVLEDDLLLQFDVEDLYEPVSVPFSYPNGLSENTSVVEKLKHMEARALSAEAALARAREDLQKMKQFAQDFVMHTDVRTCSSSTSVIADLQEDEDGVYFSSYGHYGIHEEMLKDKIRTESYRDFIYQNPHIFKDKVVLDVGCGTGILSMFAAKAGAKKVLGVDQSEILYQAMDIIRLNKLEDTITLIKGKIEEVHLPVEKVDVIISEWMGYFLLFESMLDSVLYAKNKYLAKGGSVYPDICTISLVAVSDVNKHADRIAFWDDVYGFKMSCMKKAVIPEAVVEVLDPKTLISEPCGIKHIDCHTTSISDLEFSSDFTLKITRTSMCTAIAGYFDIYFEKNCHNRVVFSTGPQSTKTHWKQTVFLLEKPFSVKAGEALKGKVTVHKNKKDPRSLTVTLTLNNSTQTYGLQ

[5] = target: T3, endogenously expressed PRMT4 (Homo sapiens, UniProt Q86X55); assay: Cellular PRMT4 assay: BAF155-Rme2a levels in MCF7 cells; format: cell-based; conditions: 2 days, concentrations up to 20 μM
T3 sequence (Q86X55 1-608): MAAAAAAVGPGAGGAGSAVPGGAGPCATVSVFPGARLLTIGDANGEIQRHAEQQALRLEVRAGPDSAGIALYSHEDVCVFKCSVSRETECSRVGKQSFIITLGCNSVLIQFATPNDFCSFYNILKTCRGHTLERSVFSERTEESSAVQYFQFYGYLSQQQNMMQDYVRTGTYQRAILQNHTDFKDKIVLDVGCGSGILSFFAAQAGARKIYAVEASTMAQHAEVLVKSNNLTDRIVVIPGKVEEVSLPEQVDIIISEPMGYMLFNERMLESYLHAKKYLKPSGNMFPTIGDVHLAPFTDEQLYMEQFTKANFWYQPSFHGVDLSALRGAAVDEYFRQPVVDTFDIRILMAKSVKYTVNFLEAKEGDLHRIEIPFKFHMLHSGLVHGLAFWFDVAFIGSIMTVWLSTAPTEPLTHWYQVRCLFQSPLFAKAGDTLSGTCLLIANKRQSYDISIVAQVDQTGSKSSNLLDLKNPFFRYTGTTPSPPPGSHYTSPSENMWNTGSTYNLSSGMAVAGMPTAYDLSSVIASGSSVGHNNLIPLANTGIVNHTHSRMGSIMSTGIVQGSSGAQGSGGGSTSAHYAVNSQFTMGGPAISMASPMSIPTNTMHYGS

type I PRMTs = assay: Methyltransferase selectivity assay, type I PRMTs; format: biochemical
PRMT6 [6] = target: T1, PRMT6; assay: KI and kinact determination from time-dependent IC50 values; format: biochemical; conditions: for time dependence of IC50 against PRMT6: preincubation 1 to 30 min, SPA
PRMT6 [7] = target: T1, PRMT6; assay: Scintillation proximity assay; format: biochemical; conditions: SPA, 1 h preincubation
[8] = test system: PKMTs, DNMTs, and type II, III PRMTs; assay: Methyltransferase selectivity assay, PKMTs, DNMTs and type II, III PRMTs; format: biochemical; conditions: at 10 μM
PRMT1 = PRMT1 (Homo sapiens, UniProt Q99873); assay: Mass spectrometry analysis of covalent binding, PRMT1; conditions: 15 μM protein, 300 μM compound, 1 h at rt
Chain of PRMT1 (Q99873 whole entry, species assumed): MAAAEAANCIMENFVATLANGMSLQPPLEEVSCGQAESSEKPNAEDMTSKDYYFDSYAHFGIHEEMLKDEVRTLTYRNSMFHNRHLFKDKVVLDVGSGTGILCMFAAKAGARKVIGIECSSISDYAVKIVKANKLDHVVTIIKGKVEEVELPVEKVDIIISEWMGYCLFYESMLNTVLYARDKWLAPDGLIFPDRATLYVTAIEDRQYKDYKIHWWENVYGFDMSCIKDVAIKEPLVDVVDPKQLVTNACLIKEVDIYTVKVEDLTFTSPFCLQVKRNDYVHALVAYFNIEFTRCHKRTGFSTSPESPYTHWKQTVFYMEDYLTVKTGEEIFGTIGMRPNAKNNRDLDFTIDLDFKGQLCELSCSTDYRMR

PRMT4 = target: T4, PRMT4 (Homo sapiens, UniProt Q86X55); assay: Mass spectrometry analysis of covalent binding, PRMT4; conditions: 15 μM protein, 300 μM compound, 1 h at rt
T4 sequence (Q86X55 1-608): T3 sequence (Q86X55 1-608)

PRMT8 = PRMT8 (Homo sapiens, UniProt Q9NR22); assay: Mass spectrometry analysis of covalent binding, PRMT8; conditions: 15 μM protein, 300 μM compound, 1 h at rt
Chain of PRMT8 (Q9NR22 whole entry, species assumed): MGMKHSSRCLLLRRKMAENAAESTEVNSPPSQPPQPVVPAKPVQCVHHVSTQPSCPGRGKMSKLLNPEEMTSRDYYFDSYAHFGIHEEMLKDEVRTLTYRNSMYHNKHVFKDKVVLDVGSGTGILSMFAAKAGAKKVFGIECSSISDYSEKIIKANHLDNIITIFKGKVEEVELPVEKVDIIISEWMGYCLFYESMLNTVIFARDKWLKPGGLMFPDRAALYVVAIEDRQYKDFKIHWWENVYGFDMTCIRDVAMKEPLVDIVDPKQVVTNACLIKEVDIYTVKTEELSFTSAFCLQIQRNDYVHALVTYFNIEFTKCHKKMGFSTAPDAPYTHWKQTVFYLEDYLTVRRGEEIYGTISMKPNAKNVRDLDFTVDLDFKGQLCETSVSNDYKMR

DNMT3A/3L = DNMT3A/3L (Homo sapiens, UniProt Q9Y6K1); assay: Methyltransferase selectivity assay, DNMT3A/3L; format: biochemical; conditions: read-out: inhibition of DNMT3A/3L
Chain of DNMT3A/3L (Q9Y6K1 whole entry, looked up, species assumed): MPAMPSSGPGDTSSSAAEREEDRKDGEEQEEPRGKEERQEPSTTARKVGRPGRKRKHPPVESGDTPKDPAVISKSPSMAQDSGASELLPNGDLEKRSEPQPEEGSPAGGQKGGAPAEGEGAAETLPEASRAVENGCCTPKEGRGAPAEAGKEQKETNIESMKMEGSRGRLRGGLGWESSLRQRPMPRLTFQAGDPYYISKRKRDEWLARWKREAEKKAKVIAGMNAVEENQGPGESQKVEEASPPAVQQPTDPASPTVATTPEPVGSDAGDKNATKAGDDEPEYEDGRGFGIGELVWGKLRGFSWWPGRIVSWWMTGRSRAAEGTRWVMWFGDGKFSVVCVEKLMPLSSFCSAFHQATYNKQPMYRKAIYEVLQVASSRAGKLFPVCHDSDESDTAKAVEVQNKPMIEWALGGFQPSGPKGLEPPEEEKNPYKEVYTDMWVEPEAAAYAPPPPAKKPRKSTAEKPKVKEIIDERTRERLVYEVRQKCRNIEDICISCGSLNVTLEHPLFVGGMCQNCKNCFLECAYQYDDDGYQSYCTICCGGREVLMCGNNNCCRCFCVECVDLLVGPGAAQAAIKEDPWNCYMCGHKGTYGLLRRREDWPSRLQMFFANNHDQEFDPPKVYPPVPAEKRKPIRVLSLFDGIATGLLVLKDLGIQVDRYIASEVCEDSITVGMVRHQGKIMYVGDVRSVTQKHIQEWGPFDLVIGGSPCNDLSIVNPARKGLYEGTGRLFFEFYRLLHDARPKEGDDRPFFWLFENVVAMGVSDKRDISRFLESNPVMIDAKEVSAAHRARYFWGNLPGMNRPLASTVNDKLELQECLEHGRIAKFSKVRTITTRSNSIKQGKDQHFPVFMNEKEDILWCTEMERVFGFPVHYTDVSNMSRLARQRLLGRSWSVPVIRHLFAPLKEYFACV
Chain of DNMT3A/3L (Q9UJW3 whole entry partner, species assumed): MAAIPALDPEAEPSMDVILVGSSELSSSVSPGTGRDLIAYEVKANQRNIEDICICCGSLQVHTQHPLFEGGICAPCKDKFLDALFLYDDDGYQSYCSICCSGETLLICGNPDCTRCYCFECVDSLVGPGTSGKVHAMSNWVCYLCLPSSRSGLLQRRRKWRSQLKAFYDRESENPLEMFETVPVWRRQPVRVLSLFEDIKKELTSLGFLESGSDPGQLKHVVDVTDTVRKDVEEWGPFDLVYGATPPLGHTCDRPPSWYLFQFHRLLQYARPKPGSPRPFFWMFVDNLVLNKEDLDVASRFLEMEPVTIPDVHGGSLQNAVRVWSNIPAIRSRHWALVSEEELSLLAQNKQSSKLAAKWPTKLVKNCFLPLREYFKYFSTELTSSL

PRMT3 [9] = target: T2, PRMT3; assay: Mass spectrometry analysis of covalent binding, PRMT3; conditions: 15 μM protein, 300 μM compound, 1 h at rt

T1 sequence (Q96LA8 whole entry): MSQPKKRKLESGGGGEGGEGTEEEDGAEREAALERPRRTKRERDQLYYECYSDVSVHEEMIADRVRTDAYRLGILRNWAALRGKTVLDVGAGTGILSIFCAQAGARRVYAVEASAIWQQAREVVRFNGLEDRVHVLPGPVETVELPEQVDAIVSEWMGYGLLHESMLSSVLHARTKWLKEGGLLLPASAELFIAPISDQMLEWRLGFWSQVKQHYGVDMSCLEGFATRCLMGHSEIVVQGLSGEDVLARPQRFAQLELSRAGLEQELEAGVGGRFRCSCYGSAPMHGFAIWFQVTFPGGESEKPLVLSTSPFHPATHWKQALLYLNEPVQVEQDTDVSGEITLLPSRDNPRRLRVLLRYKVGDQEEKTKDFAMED

| Structure (SMILES) | cytotoxicity in MCF-7 cells (MCF-7 cells) | cytotoxicity in HEK293T cells (HEK293T cells) | cytotoxicity in PNT2 cells [2] | covalent modification of PRMT6 (MS adduct) (PRMT6 [3]) | inhibition of H3R2me2a in cells (PRMT6 [1]; concentrations up to 10 μM) | reduction of PRMT3-dependent H4R3me2a in cells (PRMT3 [4]) | reduction of BAF155-Rme2a levels in cells [5] | inhibition of type I PRMTs (type I PRMTs; at 10 μM) [%] | inhibition of type I PRMTs (type I PRMTs; at 50 μM) [%] | time dependence of IC50 against PRMT6 (PRMT6 [6]) | other results |
| --- | --- | --- | --- | --- | --- | --- | --- | --- | --- | --- | --- |
| CC(C)Oc1ccc(-c2c[nH]cc2CN(C)CCN)cc1 [MS023, reference compound] | – | – | – | – | – | – | – | – | – | – | inhibition of H3R2me2a in cells (PRMT6 [1]; at 2 μM (positive control)): effectively inhibited H3R2me2a |
| C=CC(=O)Nc1cccc(-c2c[nH]cc2CN(C)CCO)c1 [Compound 7, N-(3-(4-(((2-Hydroxyethyl)(methyl)amino)methyl)-1H-pyrrol-3-yl)phenyl)acrylamide] | not cytotoxic | not cytotoxic | not cytotoxic | neither compound 5 nor compound 7 could modify PRMT6 in a detected level | did not significantly inhibit H3R2me2a | did not significantly reduce this mark | did not reduce | – | – | – | – |
| CCC(=O)Nc1cccc(-c2c[nH]cc2CN(C)CCN)c1 [Compound 5, N-(3-(4-(((2-Aminoethyl)(methyl)amino)methyl)-1H-pyrrol-3-yl)-phenyl)propionamide] | not cytotoxic | not cytotoxic | not cytotoxic | neither compound 5 nor compound 7 could modify PRMT6 in a detected level | inhibited H3R2me2a, but was less effective than compound 4 | did not significantly reduce this mark | did not reduce | > 40 | > 80 | no significant change in IC50 values | pIC50 against PRMT6 (PRMT6 [7]): 7.6 ± 0.1 |
| C=CC(=O)Nc1cccc(-c2c[nH]cc2CN(C)CCN)c1 [Compound 4, N-(3-(4-(((2-Aminoethyl)(methyl)amino)methyl)-1H-pyrrol-3-yl)-phenyl)acrylamide] | not cytotoxic | not cytotoxic | not cytotoxic | adduct with mass equal to PRMT6 plus compound 4, with no detectable unmodified PRMT6 | – | did not significantly reduce this mark | did not reduce | > 90 | > 50 | time-dependent potencies | inhibition of PKMTs, DNMTs, and type II, III PRMTs [8]: did not significantly inhibit; covalent modification of PRMT1 (MS adduct) (PRMT1): no adducts with other type I PRMTs could be detected; covalent modification of PRMT4 (MS adduct) (PRMT4): no adducts with other type I PRMTs could be detected; selectivity for PRMT6 over PRMT1 in cells (PRMT6 [1]; from cellular assays): ~ 4 fold; selectivity for PRMT6 over PRMT4 in cells (PRMT6 [1]; from cellular assays): > 20 fold; kinact/KI (PRMT6 [6]): 83000 M⁻¹ s⁻¹; covalent modification of PRMT8 (MS adduct) (PRMT8): no adducts with other type I PRMTs could be detected; inhibition at 50 µM (DNMT3A/3L): > 50%; covalent modification of PRMT3 (MS adduct) (PRMT3 [9]): no adducts with other type I PRMTs could be detected |
